As a reminder, the EC50 is the midpoint of the concentration-response curve. By CC50 is commonly meant the concentration at which the toxic effect on the cells reaches its halfway point. A low value points to harm at low concentration. A word on the solubility (thermodynamic): it is solubility found after equilibrating the solid with the medium.

Structures are written as SMILES. ≈ marks a conversion by molar mass, not a printed value.

For one series, the system named is HIV-1 (IIIB). Description: microbe, parasite or virus in culture. In kind it is cell-based. The following applies: Human immunodeficiency virus 1, MT4, 120 h; HIV-1 (IIIB) replication in MT-4 cells, 5 days, Cell Titer Glo; read-out: MT4 EC50. (ATP-based viability assays read luminescence as a measure of living cells.)
A further series in a line: in vitro. The note with it: human, uninfected MT-4 cells.
Another series is described as follows: physchem. The note with it: FaSSIF, 23 °C, thermodynamic from solid.

For `CC1=NO[C@@]2(CC[C@H](C)N3C[C@H]2n2cc(C(=O)NCc4ccc(F)cc4F)c(=O)c(OCOC(=O)O[C@H](C)C[C@@H](C)OP(=O)(O)O)c2C3=O)C1` [Compound 31, (((3′S,5S,7′R)-10′-((2,4-difluorobenzyl)carbamoyl)-3,3′-dimethyl-1′,11′-dioxo-1′,4′,5′,11′-tetrahydro-3′H,4H,7′H-spiro[isoxazole-5,6′-[2,7]methanopyrido[1,2-a][1,4]diazonin]-12′-yl)oxy)methyl ((2R,4R)-4-(phosphonooxy)pentan-2-yl) carbonate], in the series with HIV-1 (IIIB), the EC50 is 3.5 nM. In the series “in vitro”, this compound came in with a CC50 at 5 days of 12.9 µM. This compound also registered a thermodynamic solubility at 24 h in the series “physchem” of 4620 µg/mL (≈ 6.37 mM).
Consider `COC1=NO[C@@]2(CC[C@H](C)N3C[C@H]2n2cc(C(=O)NCc4ccc(F)cc4F)c(=O)c(OCOC(=O)OCC(C)(C)COP(=O)(O)O)c2C3=O)C1` [Compound 32, (((3′S,5S,7′R)-10′-((2,4-difluorobenzyl)carbamoyl)-3-methoxy-3′-methyl-1′,11′-dioxo-1′,4′,5′,11′-tetrahydro-3′H,4H,7′H-spiro[isoxazole-5,6′-[2,7]methanopyrido[1,2-a][1,4]diazonin]-12′-yl)oxy)methyl (2,2-dimethyl-3-(phosphonooxy)propyl) carbonate], for which the EC50 with HIV-1 (IIIB) amounted to 2.92 nM. In addition, half-maximal cytotoxicity in “in vitro” (CC50 at 5 days) was put at 17.7 µM. The thermodynamic solubility at 24 h in “physchem” stood at 4800 µg/mL (≈ 6.47 mM).
Consider `CC1=NO[C@@]2(CC[C@H](C)N3C[C@H]2n2cc(C(=O)NCc4ccc(F)cc4F)c(=O)c(OCOC(=O)OCC4(COP(=O)(O)O)CC4)c2C3=O)C1` [Compound 33, (((3′S,5S,7′R)-10′-((2,4-difluorobenzyl)carbamoyl)-3,3′-dimethyl-1′,11′-dioxo-1′,4′,5′,11′-tetrahydro-3′H,4H,7′H-spiro[isoxazole-5,6′-[2,7]methanopyrido[1,2-a][1,4]diazonin]-12′-yl)oxy)methyl ((1-((phosphonooxy)methyl)cyclopropyl)methyl) carbonate], for which the EC50 with HIV-1 (IIIB) was 2.17 nM. Further, the CC50 at 5 days in “in vitro” was determined as 12.3 µM. Also, the thermodynamic solubility at 24 h in the series “physchem” amounted to 5680 µg/mL (≈ 7.84 mM).
As for `CC1=NO[C@@]2(CC[C@H](C)N3C[C@H]2n2cc(C(=O)NCc4ccc(F)cc4F)c(=O)c(OCOC(=O)OCC(C)(C)N(C)C(=O)OCOP(=O)(O)O)c2C3=O)C1` [Compound 36, (phosphonooxy)methyl (1-((((((3′S,5S,7′R)-10′-((2,4-difluorobenzyl)carbamoyl)-3,3′-dimethyl-1′,11′-dioxo-1′,4′,5′,11′-tetrahydro-3′H,4H,7′H-spiro[isoxazole-5,6′-[2,7]methanopyrido[1,2-a][1,4]diazonin]-12′-yl)oxy)methoxy)carbonyl)oxy)-2-methylpropan-2-yl)(methyl)carbamate], the EC50 in the series on HIV-1 (IIIB) amounted to 1.22 nM. In the series “in vitro”, this compound came in with a CC50 at 5 days of 9.33 µM. This compound displayed a solubility (thermodynamic) at 24 h in the series “physchem” of 5060 µg/mL (≈ 6.32 mM).
With `CC1=NO[C@@]2(CC[C@H](C)N3C[C@H]2n2cc(C(=O)NCc4ccc(F)cc4F)c(=O)c(OCOC(=O)OCC(C)(C)CN(CC(=O)O)C(=O)OCOP(=O)(O)O)c2C3=O)C1` [Compound 37, N-(3-((((((3′S,5S,7′R)-10′-((2,4-difluorobenzyl)carbamoyl)-3,3′-dimethyl-1′,11′-dioxo-1′,4′,5′,11′-tetrahydro-3′H,4H,7′H-spiro[isoxazole-5,6′-[2,7]methanopyrido[1,2-a][1,4]diazonin]-12′-yl)oxy)methoxy)carbonyl)oxy)-2,2-dimethylpropyl)-N-(((phosphonooxy)methoxy)carbonyl)glycine], in the series with HIV-1 (IIIB), the EC50 amounted to 1.49 nM. Besides, the CC50 at 5 days in “in vitro” stood at 11.1 µM. The thermodynamic solubility at 24 h in the series “physchem” came to 4980 µg/mL (≈ 5.81 mM).
`COC1=NO[C@@]2(CC[C@H](C)N3C[C@H]2n2cc(C(=O)NCc4ccc(F)cc4F)c(=O)c(OC(=O)OC[C@H](C)OP(=O)(O)O)c2C3=O)C1` [Compound 38, (3′S,5S,7′R)-10′-((2,4-difluorobenzyl)carbamoyl)-3-methoxy-3′-methyl-1′,11′-dioxo-1′,4′,5′,11′-tetrahydro-3′H,4H,7′H-spiro[isoxazole-5,6′-[2,7]methanopyrido[1,2-a][1,4]diazonin]-12′-yl ((S)-2-(phosphonooxy)propyl) carbonate]: in the series on HIV-1 (IIIB), the EC50 worked out at 1.45 nM. This compound also showed a CC50 at 5 days in “in vitro” of 17.6 µM. The same compound returned a thermodynamic solubility at 24 h in the series “physchem” of 2460 µg/mL (≈ 3.59 mM).
Take `CC1=NO[C@@]2(CC[C@H](C)N3C[C@H]2n2cc(C(=O)NCc4ccc(F)cc4F)c(=O)c(OC(=O)OC[C@H](C)OP(=O)(O)O)c2C3=O)C1` [Compound 39, (3′S,5S,7′R)-10′-((2,4-difluorobenzyl)carbamoyl)-3,3′-dimethyl-1′,11′-dioxo-1′,4′,5′,11′-tetrahydro-3′H,4H,7′H-spiro[isoxazole-5,6′-[2,7]methanopyrido[1,2-a][1,4]diazonin]-12′-yl ((S)-2-(phosphonooxy)propyl) carbonate]: the EC50 in the series on HIV-1 (IIIB) amounted to 1.6 nM. This compound also gave a CC50 at 5 days in “in vitro” of 16.1 µM. For the same compound, in the series “physchem”, the solubility (thermodynamic) at 24 h amounted to 2660 µg/mL (≈ 3.97 mM).
Take `CC1=NO[C@@]2(CC[C@H](C)N3C[C@H]2n2cc(C(=O)NCc4ccc(F)cc4F)c(=O)c(OCOC(=O)CCCOP(=O)(O)O)c2C3=O)C1` [Compound 40, (((3′S,5S,7′R)-10′-((2,4-difluorobenzyl)carbamoyl)-3,3′-dimethyl-1′,11′-dioxo-1′,4′,5′,11′-tetrahydro-3′H,4H,7′H-spiro[isoxazole-5,6′-[2,7]methanopyrido[1,2-a][1,4]diazonin]-12′-yl)oxy)methyl 4-(phosphonooxy)butanoate]: the EC50 in the series with HIV-1 (IIIB) was found to be 1.26 nM. In the series “in vitro”, this compound came in with a CC50 at 5 days of 12.6 µM. The compound also had a solubility (thermodynamic) at 24 h in “physchem” of 5340 µg/mL (≈ 7.83 mM).
As for `CC1=NO[C@@]2(CC[C@H](C)N3C[C@H]2n2cc(C(=O)NCc4ccc(F)cc4F)c(=O)c(OCOC(=O)CC(C)(C)COP(=O)(O)O)c2C3=O)C1` [Compound 41, (((3′S,5S,7′R)-10′-((2,4-difluorobenzyl)carbamoyl)-3,3′-dimethyl-1′,11′-dioxo-1′,4′,5′,11′-tetrahydro-3′H,4H,7′H-spiro[isoxazole-5,6′-[2,7]methanopyrido[1,2-a][1,4]diazonin]-12′-yl)oxy)methyl 3,3-dimethyl-4-(phosphonooxy)butanoate], the EC50 in the series with HIV-1 (IIIB) stood at 3.09 nM. Also, in “in vitro”, the CC50 at 5 days was 44.3 µM. For the same compound, in “physchem”, the solubility (thermodynamic) at 24 h stood at 5600 µg/mL (≈ 7.87 mM).
As for `CC1=NO[C@@]2(CC[C@H](C)N3C[C@H]2n2cc(C(=O)NCc4ccc(F)cc4F)c(=O)c(OCOC(=O)CC(C)(C)CN(CC(=O)O)C(=O)OCOP(=O)(O)O)c2C3=O)C1` [Compound 42, N-(4-((((3′S,5S,7′R)-10′-((2,4-difluorobenzyl)carbamoyl)-3,3′-dimethyl-1′,11′-dioxo-1′,4′,5′,11′-tetrahydro-3′H,4H,7′H-spiro[isoxazole-5,6′-[2,7]methanopyrido[1,2-a][1,4]diazonin]-12′-yl)oxy)methoxy)-2,2-dimethyl-4-oxobutyl)-N-(((phosphonooxy)methoxy)carbonyl)glycine], the EC50 with HIV-1 (IIIB) stood at 1.06 nM. This compound had a CC50 at 5 days in “in vitro” of 10.3 µM. Besides, in the series “physchem”, the solubility (thermodynamic) at 24 h stood at 5080 µg/mL (≈ 6.04 mM).
